# According to patent US20060270841A1, “Assays to monitor amyloid precursor protein processing” (priority 2002, published 2006):
# Tests used:
# Format in all cases: cell-based
# APP processing [1] = test: APP/TAT fusion protein with LTR-EGFP reporter (pMM321), transient transfection in HEK293T cells (Example 2); conditions: for # Bright / # Med / # Non / # Strong: count from photographs; for fluorometer reading: 293T, 10 uM 458, 100,000 cells
# Protocol: (§1) “pcDNA3.1 zeo (+) APP(1-651)SW, K612V-(M1L)TATexonI,” “pMM321,” and “pUCd5TAT” are the same as in Example 1. H4 cells (ATCC HTB-148) are a neuronal cell line.
# (§2) • Day 1: Plated out 2×6 well plates of HEK293T cells and 2×6 well plates of H4 cells at 1×10^5 cells/well. • Day 2: Transfected cells with 2 μg total DNA—pcDNA3.1 zeo (+) APP(1-651)SW, K612V-(M1L)TATexonI and carrier (a pET-IN plasmid). Plate 1:
# (§3) 3,4: 0.1 μg pMM321+0.1 μg pcDNA3.1 zeo (+) APP(1-651)SW, K612V-(M1L)TATexonI+1.8 μg carrier (added too 0.5×carrier to this mix in 293T cells)
# Transfections for HEK293T cells: 9 μL Fugene/well. Combined with DNA in Optimem and incubated and added to cells according to manufacturer's instructions.
# (§4) Added 10 μM L-685,458 to Plates 1 and 2, wells 2 and 4 for both cell types within 1 hour of transfection. Observed cells periodically.
# (§5) Took pictures at 24, 46 hours after transfection, using AE lock to keep exposures constant between wells.
# (§6) Changed media on cells at 24 hours past transfection. Kept 10 μM L-685,458 on cells in wells 2 and 4.
# Took some photographs under fluorescent and white light (white light at low intensity) to reveal fluorescent and non-fluorescent cells. Conducted a subjective analysis of the photographs to see if the amount of inhibition by 10 μL-685,458 was in any way quantifiable. Counted bright (white in the middle), strong (blue middle), medium (green) and dim/non-fluorescent cells and determined the approximate fraction of each level of expression. Results follow:
# (§7) 100,000 cells from each well were trypsinized and placed in 0.1 mL phenol red-free media in a Costar 96-well dish and read using the fluorometer.
# APP processing [2] = test: APP/TAT fusion protein with LTR-EGFP reporter (pMM321), transient transfection in H4 cells (Example 2); conditions: for fluorometer reading: 10 uM 458, 100,000 cells
# Protocol: as §1, §2, §3
# Transfections for H4 cells: 6 μL Fugene/well. Combined with DNA in Optimem and incubated and added to cells according to manufacturer's instructions.
# as §4, §5, §6, §7
# Aβ = test: Production of Aβ in conditioned media of transfected 293T and H4 cells; conditions: 10 μM L-685,458, 1 mL conditioned media
# Protocol: 1 mL of conditioned media from each well was analyzed for production of Aβ.
# APP processing [3] = test: APP-TAT-APPct32 fusion protein with LTR β-galactosidase reporter in P4-R5 HeLa cells (Example 8); conditions: 10 μM inhibitor
# Protocol: P4-R5 cells are HeLa cells that contain a stably integrated β-galactosidase reporter gene under the control of the HIV1 LTR.
# 1.) Cell count on P4-R5 cells=7.6×10^5 cells per ml in cDMEM (−)PR. Seeded sterile white luminometer TC plates with the following cell numbers:
# • 5×10^3/well=0.75 ml in 9.25 ml media • 1.0×10^4/well=1.5 ml in 8.5 ml media • Seeded 100 μL cells per well. • Incubate overnight at 37° C., 5% CO2. Day 2
# 2.) Made up media with appropriate dilutions of inhibitors. • On no-inhibitor controls, added 100 μL of cDMEM with 1% DMSO • On wells with Compound X, added 10 μM inhibitor in cDMEM • On wells with L-875,532, added 10 μM inhibitor in cDMEM
# 3.) Prior to transfection, pulled off media on P4-R5 cells and replaced with media −/+inhibitor. • FUGENE® transfection: • For FUGENE® transfection:
# 4.) Added 600 μL of OPTIMEM® to sterile EPPENDORF® tube and carefully added 30 μL FUGENE® to media, without touching walls of tube. Incubated at room temperature for 5 minutes. • In separate EPPENDORF® tubes, added each DNA. • Added FUGENE®/OPTIMEM® dropwise to DNA; incubated at room temperature for 15 minutes.
# Added 15 μL/well of DNA/FUGENE®/OPTIMEM® dropwise to media in appropriate wells on P4-R5 cells, swirling to mix. […]
# 6. Read immediately in luminometer using standard file. Filled in required fields, read plate.
# APP processing [4] = test: APP/TAT fusion protein with LTR-GFP reporter in H4 cells, FLUOstar reading (Example 3); conditions: for Fluor Units: approximately 48 hours, 485 excitation/538 emission
# Protocol: 1. H4 cells (ATCC HTB-148) were transfected with the various constructs listed below using 6 μL Fugene per 100 μL Optimem and 100 μL Optimem per well (6-well dishes). Transfection reactions were incubated for 30 minutes prior to adding 100 μL dropwise onto wells.
# Transfections were done as follows:
# 1. 1 μg pMM321 (FIG. 25A-D) and 1 μg pcDNA3.1 backbone
# 1a. 1 μg pMM321 and 1 μg pcDNA3.1 (Invitrogen, San Diego, Calif.) backbone. Prior to transfection, 10 μM L-875,532 (γ-secretase inhibitor) was added to the well.
# 2. 1 μg pMM321 and 1 μg pRBR186 (FIG. 22A; APP expression vector; processing and inhibition of processing control)
# 2a. 1 μg pMM321 and 1 μg pRBR186. Prior to transfection, 10 μM L-875,532 was added to cells (transfection solution for 3-5 were prepared in bulk)
# 4. and 4a. 1 μg pMM321 and 1 μg pcDNA3.1 zeo (+) APP(1-651)SW, K612V-(M1L)TATexonI. Prior to transfection, 10 μM L-875,532 was added to the two wells.
# 5. and 5a. 1 μg pMM321 and 1 μg pcDNA3.1 zeo (+) APP(1-651)SW, K612V-(M1L)TATexonI. Prior to transfection, 10 μM Compound X was added to the two wells
# 7. 1 μg pMM321 and 1 μg pUCd5 TAT. Prior to transfection, 10 μM L-875,532 was added to the cells.
# Cells were assessed by eye under a fluorescence microscope the morning following transfection (˜20 hrs).
# At approximately 48 hours, cells were trypsinized, spun down, and resuspended in 100 μL PBS. The cellular contents of each well of the transfection plates were placed into one well of a 96-well fluorescence plate. Fluorescence was analyzed using the FLUOstar (485 excitation/538 emission).
# [5] = 293T cells, 46 hours, 1 μg pMM321 + 0.1 μg APP/TAT vector + cmpd (10 μM)
# [6] = 293T cells, 46 hours, 1 μg pMM321 + 1 μg APP/TAT vector + cmpd (10 μM), approximate fraction of cells
# [7] = 293T cells, 46 hours, 1 μg pMM321 + 1 μg APP/TAT vector + cmpd (10 μM)
compound,measurement,setting,value
"CC(C)C[C@H](NC(=O)[C@H](Cc1ccccc1)C[C@@H](O)[C@H](Cc1ccccc1)NC(=O)OC(C)(C)C)C(=O)N[C@@H](Cc1ccccc1)C(N)=O [L-685,458, {1S-Benzyl-4R-[1-(1S-carbamoyl-2-phenylethylcarbamoyl)-1S-3-methylbutylcarbamoyl]-2R-hydroxy-5-phenylpentyl}carbamic acid tert-butyl ester]",inhibition of GFP,"APP processing [1]; 10 μM L-685,458, same wells as the Aβ analysis (293T and H4 cells)",substantial inhibition of GFP was not observed
same,inhibition of fluorescence (fluorometer),"APP processing [1]; 293T cells, 0.1 μg APP/TAT vector + 0.1 μg pMM321, 10 μM L-685,458",Inhibition of fluorescence was also observed
same,inhibition of fluorescence (fluorometer),"APP processing [1]; 293T cells, 1 μg APP/TAT vector + 1 μg pMM321, 10 μM L-685,458",reduced to background levels
same,"effect on numbers of fluorescing cells (Table 1, second run)","APP processing [1]; 293T cells, 1 μg pMM321 + 0.1 μg APP/TAT vector, with vs without cmpd",fewer bright and strong fluorescing cells as well as more non-fluorescent cells
same,"effect on numbers of fluorescing cells (Table 1, first run)","APP processing [1]; 293T cells, 1 μg pMM321 + 1 μg APP/TAT vector, with vs without cmpd",fewer strong and medium fluorescing cells as well as more non-fluorescent cells
same,# Bright,APP processing [1]; [5],23
same,# Med,APP processing [1]; [5],149
same,# Non,APP processing [1]; [5],194
same,# Strong,APP processing [1]; [5],32
same,% Med,APP processing [1]; [6],11%
same,% Non,APP processing [1]; [6],88%
same,% Strong,APP processing [1]; [6],0.8%
same,# Bright,APP processing [1]; [7],none
same,# Med,APP processing [1]; [7],66
same,# Non,APP processing [1]; [7],521
same,# Strong,APP processing [1]; [7],5
same,fluorometer reading,"APP processing [1]; 0.1 ug LTRGFP, 0.1 ug APPtat",14790
same,fluorometer reading,"APP processing [1]; 0.1 ug LTRGFP, 1 ug APPTAT",10491
same,fluorometer reading,"APP processing [1]; 1 ug LTRGFP, 0.1 ug APPtat",65535
same,fluorometer reading,"APP processing [1]; 1 ug LTRGFP, 1 ug APPTAT",14321
same,green (GFP) cells observed,"APP processing [1]; HEK293T cells, 24 hours, 0.1 μg pMM321 + 0.1 μg APP/TAT vector, 10 μM L-685,458","Bright, medium, and dim green cells"
same,green (GFP) cells observed,"APP processing [1]; HEK293T cells, 24 hours, 0.1 μg pMM321 + 1 μg APP/TAT vector, 10 μM L-685,458","Bright, medium, and dim green cells"
same,green (GFP) cells observed,"APP processing [1]; HEK293T cells, 24 hours, 1 μg pMM321 + 0.1 μg APP/TAT vector, 10 μM L-685,458",Fewer bright green cells/field but intensity does not appear strongly diminished
same,"green (GFP) cells observed, of 15 cells","APP processing [1]; HEK293T cells, 24 hours, 1 μg pMM321 + 1 μg APP/TAT vector, 10 μM L-685,458","6 very dim, 5 dim, 1 medium, 3 bright"
same,fluorometer reading,"APP processing [2]; H4, 0.1 ug LTRGFP, 0.1 ug APPtat",6957
same,fluorometer reading,"APP processing [2]; H4, 0.1 ug LTRGFP, 1 ug APPTAT",10031
same,fluorometer reading,"APP processing [2]; H4, 1 ug LTRGFP, 0.1 ug APPtat",7136
same,fluorometer reading,"APP processing [2]; H4, 1 ug LTRGFP, 1 ug APPTAT",25307
same,bright green cells/field,"APP processing [2]; H4 cells, 24 hours, 0.1 μg pMM321 + 1 μg APP/TAT vector, 10 μM L-685,458",3-5 cells/field
same,green (GFP) cells observed under the microscope,"APP processing [2]; H4 cells, 24 hours, 1 ug pMM321 + 1 ug APP/TAT vector, 10 μM L-685,458",reduced compared with well #1
same,inhibition of fluorescence (fluorometer),"APP processing [2]; H4 cells, any transfection conditions, 10 μM L-685,458",No inhibition of fluorescence was observed
same,Aβ in conditioned media,Aβ,completely inhibited to background levels
"C[C@H](NC(=O)Cc1cc(F)cc(F)c1)C(=O)N[C@H]1N=C(c2ccccc2)c2ccccc2N(C)C1=O [L-875,532]",transactivation of the LTR by pUCd5TAT (control),APP processing [3],not affected by either inhibitor
same,Fluor Units,"APP processing [4]; pMM321 + APP-TAT-ct32, 10 μM inhibitor",8283 Fluor Units
same,decrease of fluorescence (fold),"APP processing [4]; pMM321 + APP/TAT vector, 10 μM inhibitor vs no inhibitor",2.5 ×
same,Fluor Units,"APP processing [4]; pMM321 + pRBR186 (control), 10 μM inhibitor",2161 Fluor Units
same,Fluor Units,"APP processing [4]; pMM321 alone (control), 10 μM inhibitor",3443 Fluor Units
same,fluorescence assessed by eye under a fluorescence microscope,"APP processing [4]; ~20 hrs, 1 μg pMM321 + 1 μg APP/TAT vector, 10 μM inhibitor",Clear inhibition of fluorescence
